# Measured values reported in US20230089949A1, “SMALL MOLECULES FOR TREATING AGE-RELATED RETINAL DISEASES” (University of Pittsburgh - Of the Commonwealth System of …, priority 2020, published 2023).
# Columns and labels:
# Aged Fischer 344 rats = assay: Histological analysis of retinal outer nuclear layer (ONL) in aged Fischer 344 rats (Example 1); type: in vivo, rat
# Method: Aged Fischer 344 rats were treated with oral 8-AG (5 mg/kg/day for 6 weeks; drug delivered via the drinking water), or were a control, and the eyes of the rats were harvested for histological analysis of the retinal outer nuclear layer (ONL) and the results were compared with a corresponding histological analysis of young Fischer 344 rats (FIG. 8). With advance age, there is likely to be a loss of photoreceptors with associated thinning and eventual loss of the overlying ONL (see Schuman et al., Ophthalmology, 116:488-96.e2, 2009)
# The orientation of each eye was randomly embedded and sectioned. The fixed eyes were placed in a histology processing cassette for serial alcohol based dehydration. Dehydrated eyes were embedded in paraffin, and retinal cross sections were cut at 6 μm thickness. Retinal cross sections near the optic nerve were stained by hematoxylin and eosin (H&E). Images of H&E-stained retinal cross sections were collected under 4× and 20× objectives. […]
# In each retinal cross section image under the 20× objective, the outer nuclear layer (ONL) thickness was measured at 6 locations along the image to calculate the average ONL thickness. […]
# aged F344 rat retinae [1] = assay: Retinal morphology (H&E, rhodopsin immunofluorescence) in F344 rat model of age-related photoreceptor degeneration (Example 2); type: in vivo
# Method: To test the efficacy of 8-AG in photoreceptor degeneration, 8-AG was administered in two animal models including the F344 rat of age-related photoreceptor degeneration, and the Rho^P23H/+ knock-in mice of retinitis pigmentosa and examine the retinal morphology and function.
# (§1) For treatment, female F344 rats were orally administered with 5 mg per kg body weight (bw) of 8-aminoguanine (8-AG) per day in the drinking water starting at 22-24 months of age for 8 weeks. Non-treated age-matched F344 rats and young adult F344 rats at 3-4 months of age were used as controls. RhoP^23H/+ mice were administered with 8-AG for 11 mg per kg bw per day by intraperitoneal injections starting from postnatal day (PND) 15 for five weeks. PBS treated Rho^P23H/+ and WT mice were used as controls.
# Eyes were enucleated by a surgical scissor cutting around the eyeball. Each eye was opened with a cut at the cornea side of the limbus, cut horizontally at the edge of the cornea for a circle, corneas removed and lens isolated. Eyecups were incubated in freshly prepared 4% paraformaldehyde for 2 hr. Fixed eyecups were dehydrated sequentially in 5, 10, 20 and 40% sucrose solutions in phosphate buffered saline (PBS) for 30 min each at room temperature. Finally, eyecups were incubated in a mixture of 40% sucrose in PBS and O.C.T. compound (FisherScientific, Houston, Tex. USA) at 3:7 volume ratio overnight at 4° C. before they are embedded in the same mixed solution in an orientation-specific manner and frozen in liquid nitrogen-bathed isobutene. A microtome made twelve-micron retinal cross-sections at −18° C. and those containing the optic nerve head were applied onto a SUPERFROST™ glass slide (FisherScientific, Houston, Tex. USA). These slides were then used for IHC.
# After rehydration and permeabilization in PBST for 15 min, retinal sections were incubated in 5% goat serum for 30 min, and then they were incubated with 5% goat serum containing the primary antibodies. […]
# Rho^P23H/+ knock-in mice = assay: Retinal morphology and scotopic ERG in Rho P23H/+ knock-in mice of retinitis pigmentosa; type: in vivo, mouse; conditions: 11 mg per kg bw per day i.p. for five weeks from PND 15
# Method: as §1
# (§2) Electroretinogram (ERG): ERG was performed using the Celeris system (Diagnosys, Lowell, Mass., USA). Rats were placed in the dark overnight. During the ERG test, protect the rats from the light from the beginning to the finish of the scotopic test, only use the dim light to do the preparation in the dark room. Pupils were dilated with 1% tropicamide (Akorn, Lake Forest, Ill., USA) and 2.5% phenylephrine (Sigma). Rats were anesthetized with an intraperitoneal injection of ketamine at 80 mg/kg bw and xylazine at 7 mg/kg bw. Eyes were lubricated by a 0.3% hypromellose eye gel (Alcon, Fort Worth, Tex., USA). A heating pad was used to maintain body temperature at 37° C. Scotopic ERG responses of dark-adapted eyes to ten flashes from 0.0001 cd·s/m^2 to 100 cd·s/m^2 were recorded and averaged from three sweeps per flash intensity with inter-sweep intervals of 10 to 30 s. After exposed to 10 cd/m^2 illumination for 10 min, the photopic ERG responses were recorded from the light-adapted eyes in response to flashes from 0.01 cd·s/m^2 to 100 cd·s/m^2 in addition to a 10 cd/m^2 background light. P-values were calculated by a two-way ANOVA to determine the statistical significance between the response amplitudes in the 8-AG treated group and untreated group. Factor 1, treatment condition; and factor 2, flash intensity.
# Retinal histology and H&E staining: To examine the structure of the aging rats' retinas treated with 8-AG, the rats were euthanized, their eyes removed, and fixed in 4% paraformaldehyde and 1% glutaraldehyde before paraffin sectioning. […]
# aged F344 rat retinae [2] = assay: Immunoblots of protein markers of mitochondria function, oxidative stress and apoptosis in aged F344 rat retinae; type: in vivo
# Method: A range of protein markers of mitochondria function and apoptosis was probed in the retinae of young, aged and 8-AG treated aged F344 rat retinae, as well as the mitochondrial superoxide dismutase 2 (SOD2), an enzyme protecting tissue from damage by ROS, using immunoblots. […] The fact that chronic 8-AG […] retinal levels of SOD2 is consistent with reduced retinal oxidative stress in 8-AG-treated aged rats.
# as §1
# Western Immunoblotting: The freshly isolated retinae were homogenized using Lysing Matrix D in a FASTPREP-24™ instrument (MP Biomedicals) in HBSS buffer (5 mM KCl, 0.3 mM KH2PO4, 138 mM NaCl, 4 mM NaHCO3, 0.3 mM Na2HPO4, 5.6 mM glucose, and 10 mM HEPES, pH 7.4) containing complete protease inhibitor cocktail (1 tablet/10 ml, Roche) and phosphatase inhibitor cocktail (MilliporeSigma, 1:100). After centrifugation (16200 g, 15 minutes at 4° C.), the membrane protein fraction was prepared by suspending the membrane pellets in lysis buffer containing 0.3M NaCl, 50 mM Tris-HCl (pH 7.6), and 0.5% Triton X-100, as well as the same concentration of protease inhibitors as above. The suspensions were incubated on ice and centrifuged (16200 g, 15 minutes at 4° C.). The protein concentrations of the combined supernatants were determined using the Pierce BCA protein assay (Thermo Fisher Scientific). Two μg of unheated total protein was loaded on a 4%-15% TGX Stain-Free SDS-PAGE gel (Bio-Rad). As a reliable loading control, total protein measurement per sample was determined using Bio-Rad Stain Free SDS-PAGE gel technology. UV-activated protein fluorescence was imaged on a ChemiDoc MP (Bio-Rad). The gel was electrotransferred to polyvinylidene fluoride membrane and immunoblotted with 1D4 anti-rhodopsin antibody (5 μg/mL). After washing in TBS-T, the membranes were incubated with secondary antibody, sheep anti-mouse HRP (Southern Biotech), developed using WESTERNBRIGHT® Quantum (Advansta), and imaged on a ChemiDoc MP (BioRad). The volume (intensity) of each protein species was determined and normalized to total protein using Image Lab software (Bio-Rad).
# aged F344 rat retinae [3] = assay: Immunofluorescence of GFAP and CD68 in aged F344 rat retinae; type: in vivo; conditions: 5 mg/kg bw per day in drinking water for eight weeks from 22 months of age
# Method: Glial cells are activated upon photoreceptor degeneration, and retinal immune response is thought to contribute to photoreceptor degeneration as the disease progresses. Activated macrophages were reported to not only scavenge dead cells, but also can phagocytose living photoreceptors (McMenamin et al. Prog. Retin. Eye Res. 70, 85-98, doi:10.1016/j.preteyeres. 2018.12.002 (2019)).
# as §1
# Eyes were enucleated by a surgical scissor cutting around the eyeball. Each eye was opened with a cut at the cornea side of the limbus, cut horizontally at the edge of the cornea for a circle, corneas removed and lens isolated. Eyecups were incubated in freshly prepared 4% paraformaldehyde for 2 hr. Fixed eyecups were dehydrated sequentially in 5, 10, 20 and 40% sucrose solutions in phosphate buffered saline (PBS) for 30 min each at room temperature. […]
# aged F344 rat retinae [4] = assay: SD-OCT of ONL thickness in aged F344 rats, 0 vs 4 wks; type: in vivo
# Method: (§3) The potent efficacy of 8-AG in preserving retinal morphology and function of the aged F344 rats and Rho^P23H/+ mice were shown in FIGS. 11A-11D and […].
# Optical coherence tomography (OCT): To assess the 8-AG treatment on old F344 rats, ultrahigh-resolution SD-OCT (Bioptigen, Morrisville, N.C.) was performed for in vivo imaging of rats retinas. Pupils were dilated with 1% tropicamide (Akorn, Lake Forest, Ill., USA) and 2.5% phenylephrine (Sigma). Rats were anesthetized with an intraperitoneal injection of ketamine at 80 mg/kg bw and xylazine at 7 mg/kg bw. Eyes were lubricated by a 0.3% hypromellose eye gel (Alcon, Fort Worth, Tex., USA). A heating pad was used to maintain body temperature; the A scan/B scan ratio was set at 1200 lines. Five frames of OCT images scanned at 0° were acquired in the B-mode, averaged, and saved as pdf files. To measure changes to photoreceptors in the retinas assess the effect of 8-AG on retinal protection, the thickness of the ONL was measured along with the scanned SD-OCT image at 6 points from the temporal to nasal end of the retina. A graph of ONL thicknesses was plotted to obtain the means and standard error (SE) of the samples.
# aged F344 rat retinae [5] = assay: Electroretinogram (ERG) of aged F344 rats, 0 vs 4 wks; type: in vivo; conditions: 5 mg/kg bw per day in drinking water; 4 wks vs 0 wk
# Method: as §3, §2
# Dahl salt-sensitive rats [6] = assay: Chronic effects of 8-AG in Dahl salt-sensitive rats on high salt diet (MRI, organ histology); type: in vivo, rat; conditions: high salt diet with 8AG for 40 days; independent veterinary pathology lab
# Description: (§4) While the genetic loss of PNPase activity is toxic and results in a compromised immune system, partial inhibition of PNPase by pharmacological administration is safe. The chronic effects of 8-AG have been examined in Dahl salt-sensitive rats, which is a model of genetic hypertension that is exacerbated by providing a high salt diet. […] Next, organs from these animals were examined histologically by an independent veterinary pathology lab.
# animals = assay: Observed toxicity in the animal experiments that were performed; type: in vivo
# Description: as §4
# Dahl salt-sensitive rats [7] = conditions: high salt diet with 8AG for 40 days; vs untreated high-salt control; cited from earlier work
# [8] = 5 mg per kg bw per day in drinking water for 8 weeks from 22 months of age, central, equatorial and peripheral sites, vs untreated age-matched group
# [9] = 5 mg/kg bw per day in drinking water from 24 months, 4 wks compared to before treatment
smiles,measurement,setting,value
"Nc1nc2[nH]c(N)nc2c(=O)[nH]1 [8-AG, 8-aminoguanine]",ONL preservation in retinal edges,"Aged Fischer 344 rats; oral 8-AG 5 mg/kg/day for 6 weeks via drinking water, edge of old retinae, retinal edges with preserved ONL",7 out of 8
same,"ONL thickness, effect of treatment (2-way ANOVA)","Aged Fischer 344 rats; oral 8-AG 5 mg/kg/day for 6 weeks, treated vs untreated old rats, independent of retinal location",significant
same,ONL thickness,aged F344 rat retinae [1]; [8],distinctively increased
same,OS/IS thickness,aged F344 rat retinae [1]; [8],distinctively increased
same,Rhodopsin levels (immunofluorescence),"aged F344 rat retinae [1]; 5 mg per kg bw per day in drinking water for 8 weeks, vs untreated aged retinae",increased
same,ONL layer thickness,Rho^P23H/+ knock-in mice; H&E,thicker
same,scotopic ERG a-wave response,Rho^P23H/+ knock-in mice; vs vehicle control group,significantly higher
same,scotopic ERG b-wave response,Rho^P23H/+ knock-in mice; vs vehicle control group,significantly higher
same,retinal levels of SOD2,"aged F344 rat retinae [2]; chronic oral 8-AG 5 mg/kg for 8 wks, immunoblot, aged rats",decreased
same,Rhodopsin levels (immunoblot),"aged F344 rat retinae [2]; oral 8-AG 5 mg/kg for 8 wks, aged F344 retina",restored
same,retinal MFN2 levels,"aged F344 rat retinae [2]; oral 8-AG 5 mg/kg for 8 wks, immunoblot",further increased
same,cleaved CASP3,"aged F344 rat retinae [2]; oral 8-AG 5 mg/kg for 8 wks, immunoblot, aged retinae",reduced
same,GFAP staining,aged F344 rat retinae [3],did not affect
same,number of CD68+ cells,aged F344 rat retinae [3],significantly reduced
same,"ONL thickness, nasal side (SD-OCT)",aged F344 rat retinae [4]; [9],slight increase
same,"ONL thickness, temporal side (SD-OCT)",aged F344 rat retinae [4]; [9],no change
same,ONL at sites where it had disappeared before treatment (SD-OCT),"aged F344 rat retinae [4]; single exemplary retina, 4 wks of treatment",reappeared
same,photopic b wave responses,aged F344 rat retinae [5],did not affect
same,scotopic a-wave,aged F344 rat retinae [5],significantly increased
same,scotopic b-wave,aged F344 rat retinae [5],significantly increased
same,"microscopic alterations in heart, kidney, liver, aorta, adrenal gland (histology)",Dahl salt-sensitive rats [6],No treatment-related microscopic alterations
same,toxicity,animals,no observed toxicity
same,strokes in the cerebral cortex and subcortical areas (MRI),Dahl salt-sensitive rats [7],protected from strokes
